These results are taken from ChEMBL document CHEMBL1201862, “PubChem BioAssay data set” (2004).

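Growth conditions: 96-well plates. Treatment: test compound, 48 hours, 5 concentrations. Analysis: linear interpolation between bracketing concentrations; unreached endpoints set to highest concentration. GI50 is the concentration that inhibits growth by half.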 Active and inactive are the calls of the source. Rule as the data show it: active = GI50 up to about 1.1 µM and inactive = higher.

Some test systems named below: RXF 393; SNB-75; HT-29; HOP-62; HOP-92; KM12; NCI-H23; SW-620; EKVX; M14; SF-539; NCI-H460; HCT-116; 786-0; SK-MEL-2.
Holding throughout (test): NCI tumour cell line growth inhibition, 48 h

Consider `COC(=O)C1=C(C(=O)OC)N(C(C)C)[C@H]2C(C(=O)OC)=C(C(=O)OC)N(C(C)C)[C@@H]12`, for which the GI50 in the assay on RXF 393 is > 100 µM (inactive); with SNB-75, 93.3 µM (inactive); in the assay with HT-29 it was > 100 µM (inactive); in the assay on HOP-62, > 100 µM (inactive); in the assay with HOP-92, > 100 µM (inactive); with KM12, > 100 µM (inactive). Further, the GI50 in the assay on NCI-H23, with SW-620, with EKVX, with M14, in the assay on SF-539 and with NCI-H460 was > 100 µM (inactive) each time. Also, the GI50 in the assay with HCT-116, with 786-0 and in the assay on SK-MEL-2 was > 100 µM (inactive) each time.

Take `CN1C(=O)CC(c2cccc(C3CC(=O)N(C)C3=O)n2)C1=O` (centres undefined): the GI50 in the assay on RXF 393, in the assay on SNB-75, with HT-29, with HOP-62, with HOP-92 and in the assay with KM12 was > 100 µM (inactive) throughout. For the same molecule, the GI50 in the assay with NCI-H23, with SW-620, with EKVX, in the assay on M14, in the assay with SF-539 and with NCI-H460 was > 100 µM (inactive) each time. For the same molecule, the GI50 in the assay on HCT-116, with 786-0 and in the assay on SK-MEL-2 was > 100 µM (inactive) throughout.

For the molecule `C=C(C)C1C/C=C(/C)CCCC2(CCC3=C(CC(C(=C)C)C/C=C(/C)CCC3)O2)C(=O)C1` (centres undefined), the GI50 with RXF 393, with SNB-75, in the assay with HT-29, with HOP-62, with HOP-92 and in the assay with KM12 was > 100 µM (inactive) each time. The GI50 with NCI-H23, in the assay on SW-620, in the assay on EKVX, in the assay on M14, in the assay on SF-539 and in the assay with NCI-H460 was > 100 µM (inactive) throughout. For the same molecule, the GI50 with HCT-116 is 54.7 µM (inactive); in the assay with 786-0, > 100 µM (inactive); in the assay with SK-MEL-2, > 100 µM (inactive).

Turning to `C/C(CC(=O)Nc1cccc([N+](=O)[O-])c1)=N/NC(N)=S`, the GI50 in the assay with RXF 393, in the assay on SNB-75, in the assay on HT-29, in the assay with HOP-62, with HOP-92 and with KM12 was > 100 µM (inactive) throughout. The GI50 with NCI-H23, in the assay with SW-620, with EKVX, in the assay on M14, in the assay on SF-539 and in the assay on NCI-H460 was > 100 µM (inactive) each time. Besides, the GI50 in the assay with HCT-116, in the assay on 786-0 and in the assay with SK-MEL-2 was > 100 µM (inactive) each time.

In the case of `CC(=O)NNc1nc(C)c(C(/C=C/c2ccc(/C=C/C(=N\NC(=O)c3ccncc3)c3sc(NNC(C)=O)nc3C)cc2)=N/NC(=O)c2ccncc2)s1`, the GI50 in the assay with RXF 393 is > 100 µM (inactive); with SNB-75 it was > 100 µM (inactive); with HT-29 it was > 100 µM (inactive); in the assay on HOP-62, > 100 µM (inactive); with HOP-92 it was 54 µM (inactive); with KM12, > 100 µM (inactive). Further, the GI50 is > 100 µM (inactive) with NCI-H23; > 100 µM (inactive) with SW-620; > 100 µM (inactive) with EKVX; 41.7 µM (inactive) in the assay on M14; > 100 µM (inactive) in the assay with SF-539; > 100 µM (inactive) in the assay on NCI-H460. Moreover, the GI50 with HCT-116, in the assay on 786-0 and in the assay on SK-MEL-2 was > 100 µM (inactive) each time.

For the molecule `O=c1ncccn1[C@@H]1O[C@H](CO)[C@H](O)C1O` (some centres undefined), the GI50 in the assay with RXF 393 was 80.9 µM (inactive); in the assay on SNB-75 it was 53.8 µM (inactive); with HT-29 it was > 95.1 µM (inactive); with HOP-62 it was 68.2 µM (inactive); with HOP-92 it was > 71.3 µM (inactive); with KM12, > 100 µM (inactive). The GI50 in the assay with NCI-H23 was > 100 µM (inactive); in the assay with SW-620, > 100 µM (inactive); in the assay with EKVX, > 100 µM (inactive); with M14, > 100 µM (inactive); with SF-539, > 75.3 µM (inactive); in the assay on NCI-H460, 47.9 µM (inactive). Also, the GI50 in the assay with HCT-116 is > 70.8 µM (inactive); with 786-0, > 78 µM (inactive); in the assay with SK-MEL-2, > 73.5 µM (inactive).

For the molecule `CSCCC(C(=O)O)N(CC1(O)OCC(O)C(O)C1O)N=O` (centres undefined), the GI50 with RXF 393, in the assay with SNB-75, in the assay on HT-29, with HOP-62, in the assay with HOP-92 and in the assay on KM12 was > 100 µM (inactive) each time. In addition, the GI50 in the assay with NCI-H23, with SW-620, with EKVX, in the assay with M14, with SF-539 and with NCI-H460 was > 100 µM (inactive) in each case. The GI50 with HCT-116, in the assay with 786-0 and in the assay with SK-MEL-2 was > 100 µM (inactive) throughout.

In the case of `O=C1c2ccccc2C(=O)c2cc3c(cc21)C[S+]([O-])C3`, the GI50 in the assay on RXF 393, with SNB-75, in the assay with HT-29, in the assay on HOP-62, in the assay with HOP-92 and in the assay on KM12 was > 100 µM (inactive) each time. Also, the GI50 in the assay on NCI-H23, in the assay with SW-620, in the assay with EKVX, with M14, with SF-539 and in the assay on NCI-H460 was > 100 µM (inactive) throughout. Besides, the GI50 in the assay on 786-0 and in the assay with SK-MEL-2 was > 100 µM (inactive) throughout.

On to `COC1=CC(=O)c2ccc(C(C)C)cc2C1(C)C1=NC(C)(C)CO1` (centres undefined), for which the GI50 is > 100 µM (inactive) in the assay on RXF 393; 80.5 µM (inactive) in the assay with SNB-75; > 100 µM (inactive) with HT-29; > 100 µM (inactive) in the assay on HOP-62; 86.7 µM (inactive) in the assay with HOP-92; > 100 µM (inactive) with KM12. Moreover, the GI50 in the assay on NCI-H23, in the assay on SW-620, with EKVX, with M14, with SF-539 and in the assay on NCI-H460 was > 100 µM (inactive) in each case. Besides, the GI50 with HCT-116, in the assay with 786-0 and in the assay with SK-MEL-2 was > 100 µM (inactive) throughout.

As for `CCCCCN(CCCCC)C(=O)[C@@H](CCC(=O)O)NC(=O)c1cc2ccccc2[nH]1`, the GI50 was 1.99 µM (inactive) with RXF 393; 12.3 µM (inactive) in the assay on SNB-75; 46.6 µM (inactive) with HT-29; 32.2 µM (inactive) with HOP-62; 25.6 µM (inactive) in the assay with HOP-92; 39.3 µM (inactive) in the assay with KM12. The GI50 with NCI-H23 is 22.8 µM (inactive); in the assay on SW-620 it was 63.1 µM (inactive); in the assay with EKVX it was 48.1 µM (inactive); in the assay on M14 it was 23.2 µM (inactive); with SF-539 it was 22.3 µM (inactive); in the assay with NCI-H460 it was 34.4 µM (inactive). Moreover, the GI50 was 17.9 µM (inactive) in the assay on HCT-116, 46.5 µM (inactive) in the assay with 786-0 and 27.7 µM (inactive) in the assay on SK-MEL-2.

Take `NNC(=O)/C(=C/c1ccc(Cl)cc1Cl)NC(=O)c1ccccc1`: the GI50 in the assay with RXF 393, in the assay on SNB-75, in the assay with HT-29, with HOP-62, in the assay with HOP-92 and with KM12 was > 100 µM (inactive) throughout. For the same molecule, the GI50 in the assay on NCI-H23 is > 100 µM (inactive); in the assay on SW-620, > 100 µM (inactive); in the assay with EKVX, < 0.01 µM (active); in the assay with M14 it was > 100 µM (inactive); in the assay with SF-539 it was > 100 µM (inactive); in the assay on NCI-H460, > 100 µM (inactive). The GI50 in the assay on HCT-116, in the assay with 786-0 and with SK-MEL-2 was > 100 µM (inactive) in each case.

Take `N#CCC(=O)NC1C2CC3CC(C2)CC1C3` (centres undefined): the GI50 with RXF 393 is 15.8 µM (inactive); in the assay with SNB-75 it was 17.2 µM (inactive); in the assay on HT-29, 18.5 µM (inactive); in the assay with HOP-62, 23.4 µM (inactive); with HOP-92, 18.3 µM (inactive); in the assay on KM12, 17.7 µM (inactive). Also, the GI50 in the assay on NCI-H23 was 16.6 µM (inactive); with SW-620 it was 25.4 µM (inactive); with EKVX, 18.9 µM (inactive); with M14, 19.9 µM (inactive); with SF-539, 18 µM (inactive); in the assay on NCI-H460, 16.7 µM (inactive). The figures for the GI50 in the assay with HCT-116, with 786-0 and with SK-MEL-2 were 15.2 µM (inactive), 19.5 µM (inactive) and 19.5 µM (inactive), respectively.

Turning to `CCCCC(C)C(OC(=O)CC(CC(=O)O)C(=O)O)C(CC(C)CC(O)CCCCC(O)CC(O)C(C)N)OC(=O)CC(CC(=O)O)C(=O)O` (centres undefined), the GI50 was > 48.8 µM (inactive) in the assay with RXF 393; > 78.3 µM (inactive) in the assay on SNB-75; > 100 µM (inactive) in the assay on HT-29; > 100 µM (inactive) in the assay with HOP-62; > 65.8 µM (inactive) with HOP-92; > 100 µM (inactive) in the assay on KM12. The GI50 in the assay with NCI-H23, in the assay on SW-620, in the assay on EKVX, in the assay with M14, with SF-539 and in the assay on NCI-H460 was > 100 µM (inactive) in each case. Moreover, the GI50 with HCT-116, with 786-0 and with SK-MEL-2 was > 100 µM (inactive) each time.
